# Reference: US20220183997A1, “USE OF C[…] COMBINATION WITH ANTIBIOTICS” (GW Pharma Limited, priority 2019, published 2022)
# How the values were obtained:
# Assay type in all cases: cell-based
# [1] = tested on: E. coli; assay: CBD-mediated OMV inhibition, OMV release quantified by nanoparticle tracking analysis; conditions: 1 h, vs control
# Method: (§1) E. coli and S. aureus cultures were maintained by plating on Mueller-Hinton agar plates and weekly sub-culturing was performed according to previously established methods (Iqbal et. al. 2013).
# (§2) Before OMV isolation, all bacterial growth medium was pre-treated before use by ultracentrifugation at 75,000 g for 24 h, to ensure minimum contamination with extracellular vesicles (EVs) from the medium.
# (§3) For OMV isolation, bacteria were grown in EV-free medium (as described above) for 24 h at 37° C. and 5% CO2, the culture medium collected and centrifuged once at 400 g for 10 min for removal of cells, followed by centrifugation at 4000 g for 1 h at 4° C. to remove cell debris. […]
# (§4) Samples were diluted 1:50 in sterile-filtered EV-free DPBS and the number of particles in the field of view was maintained in the range of 20-40 with a minimum concentration of samples at 5×10^7 particles/ml. Camera settings were according to the manufacturer's instructions (Malvern), five 30 sec videos per sample were recorded and replicate histograms averaged. […]
# (§5) The experiment was repeated three times and the OMVs were quantified using NTA analysis. Cell viability was assessed after 1 h treatment with CBD compared to controls and before the start of every experiment using viable count.
# [2] = tested on: S. aureus; assay: CBD-mediated membrane vesicle inhibition, release quantified by nanoparticle tracking analysis; conditions: CBD 1 or 5 μM, 1 h
# Method: as §1, §2, §3, §4, §5
# [3] = tested on: S. aureus; assay: Disc diffusion test, antibiotic discs with CBD disc; conditions: antibiotic disc + 5 μM CBD disc vs antibiotic alone, 24 h
# Method: (§6) Discs were impregnated with the following […]: Colistin (10 μg/ml), Rifampicin (15 μg/ml), Erythromycin (15 μg/ml), Kanamycin (30 μg/ml) and Vancomycin (5 μg/ml).
# (§7) Concentration of the antibiotics used was based on previously published and established MIC values (Moskowitz et al., 2010; Rojas et al., 2017; Goldstein et al., 2018; Maclayton et al., 2006, Kshetry et al., 2016).
# (§8) E. coli and S. aureus agar plates were prepared for the disc diffusion test by soaking a sterile paper disc in 5 μM CBD and placing it in the middle of the agar plate, while the impregnated antibiotic discs were placed equidistant to the CBD disc. Zone of inhibition was assessed after 24 h.
# [4] = tested on: E. coli; assay: as above; conditions: antibiotic disc + 5 μM CBD disc vs antibiotic alone, 24 h
# Method: as §6, §7, §8
Molecule,increase of antibacterial effect (radius of zone of inhibition) when combined with CBD [4] [%],sensitisation to antibiotic by CBD (in words) [4],other results
"C=C(C)[C@@H]1CCC(C)=C[C@H]1c1c(O)cc(CCCCC)cc1O [CBD, Cannabidiol]",–,–,reduction of total OMV release ([1]; 1 μM CBD): 73%; reduction of total OMV release ([1]; 5 μM CBD): 54%; effect on membrane vesicle release [2]: no effect
CC[C@H]1OC(=O)[C@H](C)[C@@H](O[C@H]2C[C@@](C)(OC)[C@@H](O)[C@H](C)O2)[C@H](C)[C@@H](O[C@@H]2O[C@H](C)C[C@H](N(C)C)[C@H]2O)[C@](C)(O)C[C@@H](C)C(=O)[C@H](C)[C@@H](O)[C@]1(C)O [Erythromycin],35,–,effect of CBD on antibacterial activity of antibiotic (in words) [3]: reduced antibacterial effects
NC[C@H]1O[C@H](O[C@H]2[C@H](O)[C@@H](O[C@H]3O[C@H](CO)[C@@H](O)[C@H](N)[C@H]3O)[C@H](N)C[C@@H]2N)[C@H](O)[C@@H](O)[C@@H]1O [Kanamycin],18,–,increase of antibiotic activity (radius of zone around diffusion disk) by CBD [3]: 30%
CO[C@H]1/C=C/O[C@@]2(C)Oc3c(C)c(O)c4c(O)c(c(/C=N/N5CCN(C)CC5)c(O)c4c3C2=O)NC(=O)/C(C)=C\C=C\[C@H](C)[C@H](O)[C@@H](C)[C@@H](O)[C@@H](C)[C@H](OC(C)=O)[C@@H]1C [Rifampicin],50,–,–
CN[C@H](CC(C)C)C(=O)N[C@H]1C(=O)N[C@@H](CC(N)=O)C(=O)N[C@H]2C(=O)N[C@H]3C(=O)N[C@H](C(=O)N[C@H](C(=O)O)c4cc(O)cc(O)c4-c4cc3ccc4O)[C@H](O)c3ccc(c(Cl)c3)Oc3cc2cc(c3O[C@@H]2O[C@H](CO)[C@@H](O)[C@H](O)[C@H]2O[C@H]2C[C@](C)(N)[C@H](O)[C@H](C)O2)Oc2ccc(cc2Cl)[C@H]1O [Vancomycin],–,did not increase antibacterial effects,–
Colistin [Colisitin],–,not,–
